How the values were obtained:
[1] = Temperature sensitivity of carboxylic acid extraction by 0.5 mol/kg Alamine 304 + 10% octanol in kerosene; type: physicochemical; conditions: distribution coefficient at 30°C divided by that at 75°C; for TS in Equilibrium with Aqueous Solutions of (mol/kg) 0.05: aqueous phase 0.05 mol/kg; for TS in Equilibrium with Aqueous Solutions of (mol/kg) 0.2: aqueous phase 0.2 mol/kg; for TS in Equilibrium with Aqueous Solutions of (mol/kg) 0.3: aqueous phase 0.3 mol/kg; for TS in Equilibrium with Aqueous Solutions of (mol/kg) 0.475: aqueous phase 0.475 mol/kg
From the text: Referring now to said patents and the teachings thereof, one finds that the process taught therein utilizes the effect of temperature on phosphoric and carboxylic acid extraction by amine-based extractants. The term "amine" as used herein means water-immiscible amine, with a total of at least 20 carbon atoms on its chains. Said patents teach that such amine-based extractants (ABE) lose much of their extraction efficiency upon temperature elevation. This loss of efficiency is referred to as "temperature sensitivity of extraction" (TS). The magnitude of this TS can be represented by the ratio of the distribution coefficient at the lower temperature (DT1) and the distribution coefficient at the higher temperature (DT2). High TS provides for the purification and the concentration of carboxylic acids through altering the temperature between extraction and back-extraction. The acid is extracted from the fermentation liquor by an ABE at low temperature, and is then back-extracted with water at an elevated temperature. The aqueous solution obtained from that back-extraction is, in many cases, more concentrated than in the fermentation liquor. This process is referred to herein as the "temperature swing process" (TSP). The attraction of such processes is in the fact that the sole energy consumption is that of sensible heat, which saves a lot of the latent heat of water evaporation in the final concentration.

[2] = Distribution curves, extractant 1.2 mol/kg tricaprylyl amine (50%) and 3.8 mol/kg octanol (50%) (Fig. 3); type: physicochemical; conditions: extraction at 25°C and back-extraction at 96°C
Protocol: Fig. 3 illustrates distribution curves for extraction by an extractant composed of 1.2 mol/kg tricaprylyl amine (50%) and 3.8 mol/kg octanol (50%). The loading of the extractant in contact with 0.2 mol/kg ascorbic acid containing aqueous solution is about 0.5 mol/kg. […] The effect is even more impressive at the low concentrations end. […] A concentration factor of about 4 can be reached on extraction at 25°C and back-extraction at 96°C.

[3] = cited from earlier work
[4] = Extraction at 25°C and stripping at about 96°C with 50% w/w tridodecylamine and 50% w/w 1-n-octanol, recycled extractant; type: physicochemical; conditions: practically complete extraction with recycled extractant; feed 0.22 mol/kg
Protocol: […]. […] […]. The extractant was composed of 50% w/w tridodecylamine and 50% w/w of 1-n-octanol. The extraction was conducted at 25°C and the stripping at about 96°C.
Extraction as in Example 12 (100 g aqueous, 40 g extractant, 3 countercurrent stages) results in practically complete extraction of the acid to form an extract (loaded extractant) comprising 5% w/w lactic acid. […]. About two-thirds of the extracted lactic acid stays in the organic phase. Re-use of this organic phase in extraction from 2% lactic acid solutions results in low yields; not more than 20% of the acid is extracted. Increasing the number of stages in extraction has only a small effect. Near complete stripping and thus high yield in re-use of the organic phase requires about 150 g water per 40 g of extract, and 6-7 countercurrent stages. […]
Stripping the extract at 96°C with 35 g water results in an aqueous solution comprising 0.6 mol/kg ascorbic acid and an organic phase practically free of ascorbic acid. Re-use of this organic phase in extraction provides an extraction yield of at least 95% at the above conditions.

[5] = Distribution curves, extractant 1.2 mol/kg tricaprylyl amine and 2.4 mol/kg octanol in kerosene (Fig. 2); type: physicochemical; conditions: temperature gradient of 25-80°C

SMILES	TS in Equilibrium with Aqueous Solutions of (mol/kg) 0.05 [1]	TS in Equilibrium with Aqueous Solutions of (mol/kg) 0.2 [1]	TS in Equilibrium with Aqueous Solutions of (mol/kg) 0.3 [1]	TS in Equilibrium with Aqueous Solutions of (mol/kg) 0.475 [1]	temperature sensitivity [2]	product diluted compared with the feed [4] [times]	uphill concentration factor [5]	pKa [3]
O=C(O)[C@H](O)[C@@H](O)[C@H](O)[C@H](O)CO [Gluconic]	2.1	2.3	2.4	2.6				
O=C(O)CCCC(=O)O [Glutaric]	3.9	4.5	4.5	4.4				4.4
CC(C)C(=O)O [Isobutyric]	1.9	1.5	1.4	1.1				
CC(O)C(=O)O (stereo not drawn) [Lactic, lactic acid]	2.5	2.4	2.4	2.2		4		
O=C(O)C(O)C(O)C(=O)O (stereo not drawn) [Tartaric]	3.4	3.2	2.7	2.4				

Continued, in another order:

TS in Equilibrium with Aqueous Solutions of (mol/kg) 0.05 [1]	TS in Equilibrium with Aqueous Solutions of (mol/kg) 0.2 [1]	TS in Equilibrium with Aqueous Solutions of (mol/kg) 0.3 [1]	TS in Equilibrium with Aqueous Solutions of (mol/kg) 0.475 [1]	temperature sensitivity [2]	product diluted compared with the feed [4] [times]	uphill concentration factor [5]	SMILES	pKa [3]
6.0	3.1	2.6	2.2	Practically no temperature sensitivity			O=C(O)CC(O)(CC(=O)O)C(=O)O [Citric, citric acid]	
1.1	1.0	1.0	1.0				O=C(O)/C=C\C(=O)O [Maleic]	
4.0	4.3	4.0	4.0				O=C(O)CC(O)C(=O)O (stereo not drawn) [Malic]	3.22
3.6	1.5	1.3	1.1				O=C(O)CC(=O)O [Malonic]	
4.3	4.0	4.0	4.1			about 2	O=C(O)CCC(=O)O [Succinic, succinic acid]	
